Columns and labels:
house mice, Mus musculus = test: Laboratory T-tube bioassay: behavioral responses of mice (first choice, time spent); assay type: in vivo; details: male mice
Text: A laboratory experimental apparatus was constructed to test the behavioral responses of mice to the compositions described herein. The experimental design is depicted in FIG. 4 and includes three clear Plexiglas chambers: release chamber (1: 40 cm×20 cm×30 cm for placement of a mouse at the onset of a bioassay), and response chambers (3a and 3b: each 60 cm×30 cm×40 cm) interconnected by a Pyrex glass T-tube (2; stem: 65 cm long, side arms: 45 cm long, all 10 cm in diameter). Each response chamber housed a test stimulus in a Petri dish (4a, 4b; 3 cm diam.). For each replicate, a single mouse was deprived of food, but not water, for 4-6 h before being placed into chamber 1, which was illuminated by dim red light to facilitate observations of the mouse's position. The mouse was allowed to enter the stem of the T-tube (2) on its own accord in response to test stimuli, which were randomly assigned to response chamber 3a or 3b.
Both response chambers were fitted with a Petri dish (4a, 4b) containing a Whatman #1 filter paper disk (25 mm diam.) treated with a randomly assigned treatment stimulus or control stimulus. For each bioassay, a single mouse was tested and the following data were recorded: (1) the treatment or control chamber the mouse entered first with all four paws (“first-choice data”); and (2) the position of the mouse at each of 30 30-sec intervals after its first entry into the T-tube. Position data were then used to calculate the proportion of time a mouse spent in the treatment or control chamber (“time-spent data”).
Following each replicate, the chambers and T-tube were cleaned with a Percept® disinfectant detergent (Virox Technologies Inc. Mississaugua ON L5N 5M4, Canada) and wiped with 70% ethanol.
First-choice data and the time spent in a trap box quadrant were analyzed using a χ^2 test with Yates' correction for continuity (α=0.05) and the Student's t-test (α=0.05), respectively.
In Experiment 5, the laboratory experimental design of FIG. 4 was used to evaluate the responses of female mice to synthetic androstenone. For Experiment 5, the treatment stimulus consisted of filter paper treated with 4 μg of synthetic androstenone (see Experiments 1 and 2), and the control stimulus consisted of filter paper treated with the 50 μl of ether without androstenone.
In Experiment 6, the laboratory experimental design of FIG. 4 was used to evaluate the responses of male mice to blends of synthetic progesterone and estrogen. For Experiment 6, the treatment stimulus consisted of filter paper treated with a 4-μg blend of the synthetic hormones progesterone and estrogen formulated in 50 μl of ether at a ratio of 100:1 and a control stimulus which consisted of filter paper treated with 50 μl of ether.
In Experiments 9 to 11, the laboratory experimental design of FIG. 4 was used to evaluate the responses of male mice to synthetic progesterone and estrogen. For the Experiments, the treatment stimulus consisted of filter paper treated with a blend of the synthetic progesterone (50 ng) and estrogen (25 ng) (hereinafter “synthetic hormone blend”) (Experiment 9), progesterone alone (75 ng) (Experiment 10) or estrogen alone (75 ng) (Experiment 11) formulated in 50 μl ether. The control stimulus consisted of filter paper treated with 50 μl of ether for each of Experiments 9 to 11.
Experiment 12 used the laboratory experimental apparatus of FIG. 4 to test choices of female mice between filter paper treated with 75 ng of synthetic testosterone (the treatment stimulus) formulated in 50 μl of ether and control filter paper treated with 50 μl of ether. Experiment 13 was identical to Experiment 12 except that the treatment stimulus consisted of filter paper treated with 75 ng of synthetic androstenone.

[1] = test system: wild house mice, Mus musculus; test: Field experiments with paired trap boxes: trap captures of wild mice; assay type: in vivo
[2] = Experiment 10, progesterone alone (75 ng)
[3] = Experiment 22, 750 ng of progesterone
[4] = Experiment 11, estrogen alone (75 ng)

SMILES | first entry into treated chamber vs control chamber (house mice, Mus musculus; [2]) | responses of male mice compared with the blend (house mice, Mus musculus; [2]) | time spent in treated chamber vs control chamber (house mice, Mus musculus; [2]) | captures of adult male mice vs control traps [1, 3] | captures of juvenile male mice vs control traps [1, 3] | first entry into baited chamber vs control chamber (house mice, Mus musculus; [4]) | responsiveness of male mice compared with progesterone (house mice, Mus musculus; [4]) | time spent in treatment chamber vs control chamber (house mice, Mus musculus; [4]) | captures of wild mice vs control traps ([1]; Experiment 23, 750 ng of estradiol (estrogen))
CC(=O)[C@H]1CC[C@H]2[C@@H]3CCC4=CC(=O)CC[C@]4(C)[C@H]3CC[C@]12C [progesterone] | did not significantly choose to first enter | less pronounced | significantly more time | significantly more | significantly more | – | – | – | –
C[C@]12CC[C@@H]3c4ccc(O)cc4CC[C@H]3[C@@H]1CC[C@@H]2O [estrogen, (8R,9S,13S,14S,17S)-13-methyl-6,7,8,9,11,12,14,15,16,17-decahydrocyclopenta[a]phenanthrene-3,17-diol] | – | – | – | – | – | significantly more often | more responsive to estrogen than to progesterone | significantly more time | as ineffective as control traps

Reference: patent US11185077B2, “Attractants for rodents” (priority 2016, dated 2021)
